Like-named read-outs stand apart in the source and are kept apart here.
Columns and labels:
[1] = target: T1, baculovirus-expressed ALK (Homo sapiens, UniProt Q9UM73); experiment: ALK Kinase Assay (ELISA-type, time-resolved fluorescence); format: biochemical
T1 construct: host or cells: baculovirus expression system
Outline: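 Plates coated with phospholipase C-γ substrate (10 μg/mL in TBS); reaction started with 30 ng/ml ALK and run 15 min at 37° C. Phosphorylated substrate detected with Eu-N1-labeled PT66 antibody. IC50 from sigmoidal variable-slope fit of percent inhibition vs log concentration.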

[2] = target: T2, c-Met (cytoplasmic domain) (Homo sapiens, UniProt P08581); experiment: c-Met Kinase Assay (same methods as for ALK, with modifications); format: biochemical
T2 construct: 10 ng/mL c-Met (cytoplasmic domain, Invitrogen Corporation #PV3143); purchased Invitrogen Corporation PV3143
Outline: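 Plates were coated with phospholipase C-γ substrate (10 μg/mL) in TBS, and the reaction was started with 10 ng/mL c-Met cytoplasmic domain and run 15 min at 37 °C. Phosphoproduct was detected with Eu-N1-labelled PT66 antibody. IC50 came from a variable-slope sigmoidal fit of percent inhibition vs log concentration.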

[3] = ALK kinase inhibition, 1 μM ATP, read-out: ALK Activity
[4] = c-Met kinase inhibition, 1 μM ATP, read-out: cMet Activity
[5] = ALK kinase inhibition, 1 μM ATP (Km level), read-out: ALK Activity
[6] = c-Met kinase inhibition, 1 μM ATP (Km level), read-out: cMet Activity
[7] = 1 μM ATP (Km level), 30 ng/ml ALK, 37° C., 15 minutes, read-out: ALK Activity (ALK kinase inhibition, IC50 class)
[8] = 1 μM ATP (Km level), 10 ng/mL c-Met, read-out: cMet Activity (c-Met kinase inhibition, IC50 class)
[9] = 1 μM ATP (Km level), read-out: ALK Activity (ALK Kinase Inhibition, IC50)
[10] = 1 μM ATP (Km level), read-out: cMet Activity (c-Met Kinase Inhibition, IC50)

T1 sequence (Q9UM73 19-1620): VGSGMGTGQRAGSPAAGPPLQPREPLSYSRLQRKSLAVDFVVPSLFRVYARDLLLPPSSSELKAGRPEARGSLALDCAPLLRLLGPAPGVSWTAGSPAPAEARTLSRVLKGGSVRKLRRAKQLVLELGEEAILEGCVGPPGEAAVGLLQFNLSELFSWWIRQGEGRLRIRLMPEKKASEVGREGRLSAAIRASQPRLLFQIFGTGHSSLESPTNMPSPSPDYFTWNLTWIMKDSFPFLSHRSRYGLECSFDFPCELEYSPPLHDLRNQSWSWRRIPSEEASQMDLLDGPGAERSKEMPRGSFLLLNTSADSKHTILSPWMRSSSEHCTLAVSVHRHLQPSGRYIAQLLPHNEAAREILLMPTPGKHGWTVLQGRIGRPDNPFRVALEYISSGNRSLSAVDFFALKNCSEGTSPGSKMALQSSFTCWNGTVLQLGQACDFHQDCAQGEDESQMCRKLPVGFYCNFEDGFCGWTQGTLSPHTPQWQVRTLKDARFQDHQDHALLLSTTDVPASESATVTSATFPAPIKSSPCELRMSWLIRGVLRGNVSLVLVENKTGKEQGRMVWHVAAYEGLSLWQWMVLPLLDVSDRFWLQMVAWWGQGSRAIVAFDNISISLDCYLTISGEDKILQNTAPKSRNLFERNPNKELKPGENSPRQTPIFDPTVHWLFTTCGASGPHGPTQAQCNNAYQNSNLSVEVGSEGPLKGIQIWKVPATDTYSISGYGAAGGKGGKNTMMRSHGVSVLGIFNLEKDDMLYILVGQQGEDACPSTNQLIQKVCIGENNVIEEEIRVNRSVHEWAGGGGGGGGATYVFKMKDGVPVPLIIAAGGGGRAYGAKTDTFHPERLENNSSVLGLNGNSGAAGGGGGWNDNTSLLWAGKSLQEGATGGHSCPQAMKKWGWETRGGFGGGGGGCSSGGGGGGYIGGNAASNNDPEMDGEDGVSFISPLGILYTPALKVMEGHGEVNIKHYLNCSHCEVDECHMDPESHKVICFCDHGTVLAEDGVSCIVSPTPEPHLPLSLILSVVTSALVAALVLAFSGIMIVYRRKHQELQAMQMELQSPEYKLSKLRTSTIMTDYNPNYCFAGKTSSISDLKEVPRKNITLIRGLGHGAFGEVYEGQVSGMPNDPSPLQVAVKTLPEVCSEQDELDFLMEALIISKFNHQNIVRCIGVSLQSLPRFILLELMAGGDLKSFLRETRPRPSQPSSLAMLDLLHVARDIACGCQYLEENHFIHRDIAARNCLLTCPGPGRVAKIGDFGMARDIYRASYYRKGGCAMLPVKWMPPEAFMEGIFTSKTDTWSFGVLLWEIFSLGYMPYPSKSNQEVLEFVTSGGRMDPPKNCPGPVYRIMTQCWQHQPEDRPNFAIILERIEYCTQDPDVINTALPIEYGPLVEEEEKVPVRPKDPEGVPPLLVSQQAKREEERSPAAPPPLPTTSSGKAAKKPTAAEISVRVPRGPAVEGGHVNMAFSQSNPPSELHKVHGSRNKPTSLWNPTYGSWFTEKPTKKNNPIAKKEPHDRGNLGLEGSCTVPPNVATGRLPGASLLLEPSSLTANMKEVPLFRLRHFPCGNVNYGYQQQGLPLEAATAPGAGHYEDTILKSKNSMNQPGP
T2 sequence (P08581 956-1390 limits assumed): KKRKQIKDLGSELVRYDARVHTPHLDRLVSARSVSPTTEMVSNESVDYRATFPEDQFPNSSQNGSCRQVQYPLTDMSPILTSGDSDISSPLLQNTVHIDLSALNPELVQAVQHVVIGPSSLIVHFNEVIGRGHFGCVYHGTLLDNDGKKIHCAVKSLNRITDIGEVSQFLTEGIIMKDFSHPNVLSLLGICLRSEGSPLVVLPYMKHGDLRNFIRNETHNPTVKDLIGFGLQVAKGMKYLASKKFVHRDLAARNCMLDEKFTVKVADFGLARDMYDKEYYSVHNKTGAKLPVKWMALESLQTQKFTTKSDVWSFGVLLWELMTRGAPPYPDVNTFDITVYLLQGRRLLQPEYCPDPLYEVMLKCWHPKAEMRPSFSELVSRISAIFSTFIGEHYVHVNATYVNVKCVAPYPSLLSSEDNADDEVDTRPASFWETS

With COCCN1CCc2ccc(Nc3ncc(Cl)c(Nc4ccccc4S(=O)(=O)N(C)C)n3)cc2CC1 [Example 1686, 2-{5-Chloro-2-[3-(2-methoxy-ethyl)-2,3,4,5-tetrahydro-1H-benzo[d]azepin-7-ylamino]-pyrimidin-4-ylamino}-N,N-dimethyl-benzenesulfonamide] the IC50 [1, 3] was less than 100 nM and the IC50 [2, 4] was 100 to 1000 nM.
With CNC(=O)c1ccccc1Nc1nc(Nc2cc3c(cc2OC)CCOC(=O)N3C)ncc1Cl [Example 1511, 2-[5-Chloro-2-(2-methoxy-5-methyl-6-oxo-5,6,8,9-tetrahydro-7-oxa-5-aza-benzocyclohepten-3-ylamino)-pyrimidin-4-ylamino]-N-methyl-benzamide] the IC50 [1, 3] was less than 100 nM and the IC50 [2, 4] was 1000 to 10000 nM.
Work on “5-Chloro-N*2*,N*4*-bis-(3-ethyl-2,3,4,5-tetrahydro-1H-benzo[d]azepin-7-yl)-pyridine-2,4-diamine [Example 199]” yielded an IC50 [1, 5] of less than 100 nM and an IC50 [2, 6] of 1000 to 10000 nM.
With CCN1C(=O)CCC(C)(C)c2ccc(Nc3ncc(Cl)c(Nc4c(F)cccc4S(=O)(=O)C(C)C)n3)cc21 [Example 1252, 8-{5-Chloro-4-[2-fluoro-6-(propane-2-sulfonyl)-phenylamino]-pyrimidin-2-ylamino}-1-ethyl-5,5-dimethyl-1,3,4,5-tetrahydro-1-benzazepin-2-one] the IC50 [1, 7] was less than 100 nM and the IC50 [2, 8] was 1000 to 10000 nM.
Compound CCN1C(=O)C(N)CCc2c1ccc(Nc1ncc(Cl)c(Nc3ccccc3S(=O)(=O)C(C)C)n1)c2OC (stereo not shown) [Example 1337, 3-Amino-7-{5-chloro-4-[2-(propane-2-sulfonyl)-phenylamino]-pyrimidin-2-ylamino}-1-ethyl-6-methoxy-1,3,4,5-tetrahydro-benzo[b]azepin-2-one] has an IC50 [1, 7] of less than 100 nM and an IC50 [2, 8] greater than 10000 nM.
Work on COc1cc2c(cc1Nc1ncc(Cl)c(N[C@@H]3CCCC[C@H]3NS(C)(=O)=O)n1)CCN(C[C@H](O)C(F)(F)F)CC2 [Example 461, N-((1R,2R)-2-{5-Chloro-2-[8-methoxy-3-((S)-3,3,3-trifluoro-2-hydroxy-propyl)-2,3,4,5-tetrahydro-1H-benzo[d]azepin-7-ylamino]-pyrimidin-4-ylamino}-cyclohexyl)-methanesulfonamide] yielded an IC50 [1, 5] of less than 100 nM and an IC50 [2, 6] greater than 10000 nM.
CCN1C(=O)CCCc2ccc(Nc3ncc(Cl)c(Nc4ccc(CC#N)cc4)n3)cc21 [Example 1225, {4-[5-Chloro-2-(1-ethyl-2-oxo-2,3,4,5-tetrahydro-1H-1-benzazepin-8-ylamino)-pyrimidin-4-ylamino]-phenyl}-acetonitrile] showed an IC50 [1, 7] of 100 to 1000 nM and an IC50 [2, 8] of 1000 to 10000 nM.
CCN1C(=O)CN(C(C)=O)Cc2ccc(Nc3ncc(Cl)c(Nc4c(C)csc4C(=O)NC)n3)cc21 [Example 1852, 3-[2-(4-Acetyl-1-ethyl-2-oxo-2,3,4,5-tetrahydro-1H-benzo[e][1,4]diazepin-8-ylamino)-5-chloro-pyrimidin-4-ylamino]-4-methyl-thiophene-2-carboxylic acid-methylamide] gave an IC50 [1, 3] of less than 100 nM and an IC50 [2, 4] of less than 100 nM.
“2-[5-Chloro-2-(2-methyl-3-oxo-2,3,4,5-tetrahydro-1H-benzo[c]azepin-8-ylamino)-pyrimidin-4-ylamino]-N-methyl-benzamide and 2-[5-chloro-2-(2-methyl-3-oxo-2,3-dihydro-1H-benzo[c]azepin-8-ylamino)-pyrimidin-4-ylamino]-N-methyl-benzamide [Example 1798]” was tested, and the IC50 [1, 3] was less than 100 nM and the IC50 [2, 4] was less than 100 nM.
CNC(=O)c1cccc(F)c1Nc1nc(Nc2ccc3c(c2)N(C(C)C)CCCO3)ncc1Cl [Example 1734, 2-[5-Chloro-2-(9-isopropyl-6,7,8,9-tetrahydro-5-oxa-9-aza-benzocyclohepten-2-ylamino)-pyrimidin-4-ylamino]-3-fluoro-N-methyl-benzamide] showed an IC50 [1, 3] of less than 100 nM and an IC50 [2, 4] of less than 100 nM.
In the case of COCCN1CCc2cc(Nc3ncc(Cl)c(NC4C5C=CC(C5)C4c4nc5ccccc5[nH]4)n3)c(OC)cc2CC1 (stereo not drawn) [Example 610, N*4*-[(2-exo-3-exo)-3-(1H-Benzoimidazol-2-yl)-bicyclo[2.2.1]hept-5-en-2-yl]-5-chloro-N*2*-[8-methoxy-3-(2-methoxy-ethyl)-2,3,4,5-tetrahydro-1H-benzo[d]azepin-7-yl]-pyrimidine-2,4-diamine], the IC50 [1, 9] is reported as 1000 to 10000 nM and the IC50 [2, 10] is reported as greater than 10000 nM.
Compound CCN1C(=O)CCC(C)(C)c2cc(Nc3ncc(Cl)c(N[C@@H]4CCCC[C@H]4NS(C)(=O)=O)n3)ccc21 [Example 388, N-{(1R,2R)-2-[5-Chloro-2-(1-ethyl-5,5-dimethyl-2-oxo-2,3,4,5-tetrahydro-1H-benzo[b]azepin-7-ylamino)-pyrimidin-4-ylamino]-cyclohexyl}-methanesulfonamide] has an IC50 [1, 5] of less than 100 nM and an IC50 [2, 6] of 1000 to 10000 nM.
For CCN1CCNc2cc(Nc3ncc(Cl)c(Nc4c(F)cccc4C(=O)NC)n3)ccc2C1=O [Example 1454, 2-[5-Chloro-2-(4-ethyl-5-oxo-2,3,4,5-tetrahydro-1H-benzo[e][1,4]diazepin-8-ylamino)-pyrimidin-4-ylamino]-3-fluoro-N-methyl-benzamide], the IC50 [1, 3] was 100 to 1000 nM and the IC50 [2, 4] was less than 100 nM.
COc1cc2c(cc1Nc1ncc(Cl)c(Nc3ccccc3S(=O)(=O)N(C)C)n1)CCN(Cc1ncco1)CC2 [Example 1170, 2-[5-Chloro-2-(8-methoxy-3-oxazol-2-ylmethyl-2,3,4,5-tetrahydro-1H-benzo[d]azepin-7-ylamino)-pyrimidin-4-ylamino]-N,N-dimethyl-benzenesulfonamide] was tested, and the IC50 [1, 7] was less than 100 nM and the IC50 [2, 8] was 1000 to 10000 nM.
In the case of COCCOC(=O)C1[C@@H]2C=C[C@@H](C2)[C@H]1Nc1nc(Nc2ccc3c(c2OC)CC[C@@H](N2CCOCC2)CC3)ncc1Cl (single isomer, unassigned) [Example 905], the IC50 [1, 9] is reported as 100 to 1000 nM and the IC50 [2, 10] is reported as greater than 10000 nM.
CN1CCN(S(C)(=O)=O)Cc2ccc(Nc3ncc(Cl)c(N[C@@H]4CCCC[C@H]4NS(C)(=O)=O)n3)cc21 [Example 477, N-{(1R,2R)-2-[5-Chloro-2-(4-methanesulfonyl-1-methyl-2,3,4,5-tetrahydro-1H-benzo[e][1,4]diazepin-8-ylamino)-pyrimidin-4-ylamino]-cyclohexyl}-methanesulfonamide] gave an IC50 [1, 5] of less than 100 nM and an IC50 [2, 6] of 1000 to 10000 nM.
Work on CNS(=O)(=O)c1ccccc1Nc1nc(Nc2ccc3c(c2)C2CC3CN(CCOC)C2)ncc1Cl (stereo not shown) [Example 162, 2-{5-Chloro-2-[10-(2-methoxy-ethyl)-10-aza-tricyclo[6.3.1.0*2,7*]dodeca-2,4,6-trien-4-ylamino]-pyrimidin-4-ylamino}-N-methyl-benzenesulfonamide] yielded an IC50 [1, 5] of less than 100 nM and an IC50 [2, 6] of 1000 to 10000 nM.
COCCOC(=O)C1[C@@H]2C=C[C@@H](C2)[C@H]1Nc1nc(Nc2ccc3c(c2OC)CC[C@@H](N2CCOCC2)CC3)ncc1Cl (single isomer, unassigned) [Example 904] showed an IC50 [1, 9] of 1000 to 10000 nM and an IC50 [2, 10] greater than 10000 nM.
Compound CN1CCN(C2CCc3ccc(Nc4ncc(Cl)c(N[C@@H]5CCCC[C@H]5NS(C)(=O)=O)n4)cc3CC2)CC1 (stereo partly drawn) [Example 888, N-((1R,2R)-2-{5-Chloro-2-[7-(4-methyl-piperazin-1-yl)-6,7,8,9-tetrahydro-5H-benzocyclohepten-2-ylamino]-pyrimidin-4-ylamino}-cyclohexyl)-methanesulfonamide] has an IC50 [1, 9] of less than 100 nM and an IC50 [2, 10] of 1000 to 10000 nM.
CCN1C(=O)[C@@H](NC(=O)COC)CCc2c1ccc(Nc1ncc(Cl)c(N[C@H]3[C@@H](C(N)=O)[C@@H]4C=C[C@H]3C4)n1)c2OC (single isomer, unassigned) [Example 1351] showed an IC50 [1, 7] of less than 100 nM and an IC50 [2, 8] greater than 10000 nM.
